Several values for one entry are separate records, joined by “and”; a condition that tells them apart may be missing. Equal values may be shown once. Read-outs that look alike come from different tables or passages of the source.
Assays:
[1] = Liver Microsome Stability Assay (monkey); conditions: monkey liver microsomes, with NADPH, 1.0 uM compound
Procedure: (§3) Stability of a compound was assessed in the presence of liver microsomes from various sources—mouse, rat, monkey and human liver microsomes. 1.0 uM compound, 0.4% DMSO in 0.1 M Potassium Phosphate with 1.0 mg/mL liver microsomes, were incubated at 37° C. with or without 1 mM NADPH. The samples were quenched at 0, and 30 minutes.

[2] = system: IL-2-FL/Gaussia Luciferase; test: Dox Induced IL2-FL-Gluc Assay; assay type: cell-based; conditions: for IC50: 24 hr Dox induction, 293FRT/TO cells, read-out: 24 hr Dox Inducible IL2FLGluc 293FRT/TO: Mean IC50; for 24 hr Dox Inducible IL2FLGluc 293FRT/TO: IL2/PD1: ratio of IL2FLGluc IC50 to PD1ssGluc IC50
How it was run: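 Doxycycline induces an IL-2(1-153)–Gaussia luciferase fusion in a stable Flp-In 293 T-REx line. Compound exposure runs alongside induction at 37° C.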

[3] = Liver Microsome Stability Assay (rat); conditions: rat liver microsomes, with NADPH, 1.0 uM compound
Procedure: as §3

[4] = system: HER3-ss+4aa/Gaussia Luciferase; test: Dox-Induced Her3-ss-Gluc Assay; assay type: cell-based; conditions: 24 hr Dox induction, 293FRT/TO cells, read-out: 24 hr Dox Inducible Her3(ss + 4)Gluc 293FRT/TO: Mean IC50
From the text: Flp-In 293 T-REx™ cells were transfected with pcDNA™5/FRT/TO plasmid inserted with cDNA encoding Gaussia Luciferase fused to the 3′ end of cDNA encoding HER3 signal sequence plus 4 amino acids (N-[…]-C) (SEQ ID NO: 2). Transfected cells were selected for resistance to the selectable markers Hygromycin and Blasticidin to create a stable cell line that contained the HER3-ss+4aa/Gaussia Luciferase cDNA insert whose expression was regulated under the T-REx™ system. The day before assay, cells were trypsinized and plated in 384-well tissue culture plates. The next day, compound dilutions in DMSO/media containing doxycycline were added to the wells and incubated at 37° C., 5% CO2.
(§1) For chemical structures that include one or more stereoisomers, but are illustrated without indicating stereochemistry, the assay data refers to a mixture of stereoisomers.

[5] = system: multiple myeloma cell line U266B1; test: U266 Cell Viability Assay; assay type: cell-based, human; conditions: Homo sapiens, U-266, 48 h, U266B1 cells, Celltiter-Glo
Procedure: (§2) The human multiple myeloma cell line U266B1 was cultured in RPMI 1640 media supplemented with 10% fetal bovine serum, 2 mM Glutamine, and 1× Penicillin/Streptomycin. Cells were plated in 384-well tissue culture plates and treated with compound dilutions in DMSO/media. Plates were incubated at 37° C., 5% CO2 for 48 hours. After 48 hours, Celltiter-Glo® (Promega) was added to each well and luciferase signal was quantified using Tecan Infinite M1000 Pro for cell viability determination.
as §1

[6] = Liver Microsome Stability Assay (human); conditions: human liver microsomes, with NADPH, 1.0 uM compound
Procedure: as §3

[7] = system: PD1-ss+10aa/Gaussia Luciferase; test: Dox-Induced PD1-ss-Gluc Assay; assay type: cell-based; conditions: 24 hr Dox induction, 293FRT/TO cells, read-out: 24 hr Dox Inducible PD1ssGluc 293FRT/TO: Mean IC50
How it was run: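 Gaussia luciferase fused downstream of the PD1 signal peptide plus 10 residues was expressed on doxycycline induction in stably transfected Flp-In 293 T-REx cells. Compounds were added with doxycycline and incubated at 37 °C, 5% CO2.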

[8] = system: multiple myeloma cell line NCI-H929; test: H929 Cell Viability Assay; assay type: cell-based, human; conditions: NCI-H929 cells, Celltiter-Glo
Procedure: as §2, with “NCI-H929” for “U266B1”, “cultured in Advanced RPMI 1640 media (Gibco®) supplemented with 6% fetal bovine serum, 2 mM Glutamine, and 1× Penicillin/Streptomycin. On the day of assay, cells were resuspended” for “cultured”, “Penicillin/Streptomycin and” for “Penicillin/Streptomycin. Cells were”
as §1

[9] = system: TNFα-FL/Gaussia Luciferase; test: Dox Induced TNFα-FL-Gluc Assay; assay type: cell-based; conditions: for IC50: 24 hr Dox induction, 293FRT/TO cells, read-out: 24 hr Dox Inducible TNFaFLGluc 293FRT/TO: Mean IC50; for 24 hr Dox Inducible TNFaFLGluc 293FRT/TO: TNF/PD1: ratio of TNFaFLGluc IC50 to PD1ssGluc IC50
From the text: Flp-In 293 T-REx™ cells were transfected with pcDNA™5/FRT/TO plasmid inserted with cDNA encoding Gaussia Luciferase fused to the 3′ end of cDNA encoding full length TNFα (amino acids 1-233). Transfected cells were selected for resistance to the selectable markers Hygromycin and Blasticidin to create a stable cell line that contained the TNFα-FL/Gaussia Luciferase cDNA insert whose expression was regulated under the T-REx™ system. The day before assay, cells were trypsinized and plated in 384-well tissue culture plates. The next day, compound dilutions in DMSO/media containing doxycycline were added to the wells and incubated at 37° C., 5% CO2.
as §1

[10] = Liver Microsome Stability Assay (mouse); conditions: mouse liver microsomes, with NADPH, 1.0 uM compound
Procedure: as §3

[11] = '<=>' given where both are I.A.

Row | SMILES | Liver Microsome Stability (Multiple Species): Monkey - % Remaining after 30 min w/NADPH [1] | IC50 [2] [µM] | Liver Microsome Stability (Multiple Species): Rat - % Remaining after 30 min w/NADPH [3] | IC50 [4] [µM] | EC50 [5] [µM] | Liver Microsome Stability (Multiple Species): Human - % Remaining after 30 min w/NADPH [6] | IC50 [7] [µM] | EC50 ([8]; Homo sapiens, NCI-H929, 48 h) [µM] | IC50 [9] [µM] | Liver Microsome Stability (Multiple Species): Mouse - % Remaining after 30 min w/NADPH [10] | IC50 ([2]; mean) | IC50 ([4]; mean) | IC50 ([7]; mean) | EC50 ([8]; 48 hr) [µM] | IC50 ([9]; mean) | 24 hr Dox Inducible IL2FLGluc 293FRT/TO: IL2/PD1 [2] | 24 hr Dox Inducible TNFaFLGluc 293FRT/TO: TNF/PD1 [9] | 24 hr Dox Inducible IL2FLGluc 293FRT/TO: IL2/PD1 [2, 11] | 24 hr Dox Inducible TNFaFLGluc 293FRT/TO: TNF/PD1 [9, 11]
1 | O=C(Nc1nc([C@H]2CCCN2c2ccc(O[C@H]3CCCNC3)cc2)cs1)c1cccn1Cc1ccnc(F)c1 [Compound A88, 1-((2-fluoropyridin-4-yl)methyl)-N-(4-((R)-1-(4-(((S)-piperidin-3-yl)oxy)phenyl)pyrrolidin-2-yl)thiazol-2-yl)-1H-pyrrole-2-carboxamide] | 3.2% | 3.33 | 76% | 1.21 | 11.5 | 57.6% | 0.952 | 7.33 | 11 | 71.7% | – | – | – | – | – | 3.5 | 11.5 | – | –
2 | CC(C)Oc1ccc(N2CCC[C@@H]2c2csc(NC(=O)c3cccn3Cc3ccnc(F)c3)n2)cc1 [Compound A120, (R)-1-((2-fluoropyridin-4-yl)methyl)-N-(4-(1-(4-isopropoxyphenyl)pyrrolidin-2-yl)thiazol-2-yl)-1H-pyrrole-2-carboxamide] | – | 0.0426 | – | 0.0345 | > 25 | – | 0.0245 | 0.831 | 0.158 | – | – | – | – | – | – | 1.7 | 6.44 | – | –
3 | CNC(=O)Nc1ccc(N2CCC[C@@H]2c2csc(NC(=O)c3cccn3Cc3ccnc(F)c3)n2)cc1 [Compound A119, (R)-1-((2-fluoropyridin-4-yl)methyl)-N-(4-(1-(4-(3-methylureido)phenyl)pyrrolidin-2-yl)thiazol-2-yl)-1H-pyrrole-2-carboxamide] | – | 0.00735 | – | 0.00631 | > 25 | – | 0.00176 | 0.133 | 0.0413 | – | – | – | – | – | – | 4.2 | 23.5 | – | –
4 | CS(=O)(=O)Nc1ccc(N2CCC[C@@H]2c2csc(NC(=O)c3cccn3Cc3ccnc(F)c3)n2)cc1 [Compound A118, (R)-1-((2-fluoropyridin-4-yl)methyl)-N-(4-(1-(4-(methylsulfonamido)phenyl)pyrrolidin-2-yl)thiazol-2-yl)-1H-pyrrole-2-carboxamide] | – | 0.129 | – | 0.135 | > 25 | – | 0.103 | 1.8 | 0.888 | – | – | – | – | – | – | 1.2 | 8.6 | – | –

Second part, led by results:

Row | Liver Microsome Stability (Multiple Species): Monkey - % Remaining after 30 min w/NADPH [1] | IC50 [2] [µM] | Liver Microsome Stability (Multiple Species): Rat - % Remaining after 30 min w/NADPH [3] | IC50 [4] [µM] | EC50 [5] [µM] | Liver Microsome Stability (Multiple Species): Human - % Remaining after 30 min w/NADPH [6] | IC50 [7] [µM] | EC50 ([8]; Homo sapiens, NCI-H929, 48 h) [µM] | IC50 [9] [µM] | Liver Microsome Stability (Multiple Species): Mouse - % Remaining after 30 min w/NADPH [10] | IC50 ([2]; mean) | IC50 ([4]; mean) | IC50 ([7]; mean) | EC50 ([8]; 48 hr) [µM] | IC50 ([9]; mean) | SMILES | 24 hr Dox Inducible IL2FLGluc 293FRT/TO: IL2/PD1 [2] | 24 hr Dox Inducible TNFaFLGluc 293FRT/TO: TNF/PD1 [9] | 24 hr Dox Inducible IL2FLGluc 293FRT/TO: IL2/PD1 [2, 11] | 24 hr Dox Inducible TNFaFLGluc 293FRT/TO: TNF/PD1 [9, 11]
5 | – | > 25 | – | > 25 | > 25 | – | 0.418 | > 25 | > 25 | – | – | – | – | – | – | CCc1cccc2nc(/C=C/c3csc(NC(=O)c4cccn4Cc4ccnc(F)c4)n3)cn12 [Compound B78, (E)-N-(4-(2-(5-ethylimidazo[1,2-a]pyridin-2-yl)vinyl)thiazol-2-yl)-1-((2-fluoropyridin-4-yl)methyl)-1H-pyrrole-2-carboxamide] | >60 | >59.8 | – | –
6 | – | 5.37 | – | 3.14 | 19 | – | 0.372 | 16.2 | 7.27 | – | – | – | – | – | – | Cc1cn(C(C)C)nc1/C=C/c1csc(NC(=O)c2cccn2Cc2ccncc2)n1 [Compound B80, (E)-N-(4-(2-(1-isopropyl-4-methyl-1H-pyrazol-3-yl)vinyl)thiazol-2-yl)-1-(pyridin-4-ylmethyl)-1H-pyrrole-2-carboxamide] | 14 | 19.5 | – | –
7 | – | 4.34 | – | 3.58 | > 25 | – | 0.416 | > 25 | > 25 | – | – | – | – | – | – | CCc1cccc2nc(/C=C/c3csc(NC(=O)c4cccn4Cc4ccncc4)n3)cn12 [Compound B79, (E)-N-(4-(2-(5-ethylimidazo[1,2-a]pyridin-2-yl)vinyl)thiazol-2-yl)-1-(pyridin-4-ylmethyl)-1H-pyrrole-2-carboxamide] | 10 | >60.1 | – | –
8 | 5.77% and 6.74% | 2.17 | – | 2.02 | 19.1 | 10.6% and 16.9% | 0.905 | 6.85 | 1.67 | 50.1% and 71.4% | – | – | – | – | – | Cc1cnn(C(C)C)c1/C=C/c1csc(NC(=O)c2cccn2Cc2ccnc(F)c2)n1 [Compound B84, (E)-1-((2-fluoropyridin-4-yl)methyl)-N-(4-(2-(1-isopropyl-4-methyl-1H-pyrazol-5-yl)vinyl)thiazol-2-yl)-1H-pyrrole-2-carboxamide] | 2.4 | 1.84 | – | –
9 | 2.55% and 1.11% | – | 3.87% and 7.05% | – | > 25 | 8.71% and 7.07% | – | > 23.8 | – | – | 4.51 µM and 3.48 µM | 2.41 µM and 2.48 µM | 2.4 µM and 1.59 µM | 20.3 | > 25 µM and 17.9 µM | CO[C@H](CC#N)Cn1cccc1C(=O)Nc1nc([C@H]2CCCN2c2ccccc2)cs1 [Compound C108, 1-((R)-3-cyano-2-methoxypropyl)-N-(4-((R)-1-phenylpyrrolidin-2-yl)thiazol-2-yl)-1H-pyrrole-2-carboxamide] | – | – | 1.9 and 2.2 | > 10.4 and 11.3

Reference: patent publication US20230286973A1, “PROTEIN SECRETION INHIBITORS” (KEZAR LIFE SCIENCES, priority 2020, published 2023)
